Where “and” joins values, the source holds several entries; their conditions need not be identical. Equal values may be shown once. Entries after “also recorded” stand apart in the source; their conditions may differ. Read-outs that look alike come from different tables or passages of the source.
How the values were obtained:
Assay type in all cases: cell-based, human
[1] = tested on: HEK293T cells; conditions: single agent, FIG. 2; for concentration giving optimum vector production: induction 24 h post transfection
[2] = tested on: HEK293T cells
[3] = tested on: HEK1.65s cells; conditions: for inducing effect on LV titre among HDAC inhibitors: HEK1.65s, 24-well plate, FIG. 7, sodium valproate at 3 mM, valeric acid at 10 mM
[4] = tested on: suspension (serum-free) HEK293T cells; assay: Example 8: GFP reporter expression from constitutive promoters in suspension HEK293T with or without prostratin, flow cytometry; conditions: 11 μM prostratin with 10 mM sodium butyrate, two pDNA input levels, FIG. 18
[5] = tested on: HEK1.65s cells; conditions: 11 μM prostratin + 8 mM sodium butyrate, 40 mL shake flask; FACS and integration QPCR, FIGS. 10A & B
[6] = tested on: HEK1.65s cells; assay: Example 3: cell viability measurements of induced HEK1.65s cells (Table 6); conditions: for Cell Viability (%): HEK1.65s; for Δ (cell viability vs No Induction Control): vs no induction control 78.8
[7] = tested on: HEK293T cells; remark: listed apart in the source
[8] = tested on: HEK1.65s cells
[9] = tested on: HEK1.65s cells; remark: listed apart in the source
[10] = tested on: HEK293T.1-65s suspension cells
[11] = tested on: HEK1.65s cells; assay: Example 3 Experiment 2: sodium butyrate x prostratin DOE in suspension HEK1.65s, 24-well plate, GFP titration and JMP model; conditions: for optimum predicted concentration of combined induction agents: prediction profiler, FIG. 9C
[12] = tested on: HEK1.65s cells; assay: Example 4: 40 mL shake flask vector production, titre by duplex QPCR integration assay; conditions: VRC vs VRC+55 nM prostratin, FIG. 10B
[13] = tested on: HEK293T cells; assay: FIG. 13/14: standard or MSD-mutated lentiviral vector production in HEK293T with modified U1 snRNA, titration and RT-PCR of aberrant splice product; conditions: modified U1 snRNA co-expressed during production of standard and MSD-mutated LVs
[14] = 11 μM prostratin with 10 mM sodium butyrate
[15] = 256U1 snRNA expression combined with 11 μM prostratin at induction
[16] = single titre enhancing agent (256U1 expression or 11 μM prostratin), 10 mM sodium butyrate

CC(=O)N[C@@H](CS)C(=O)O [NAC, N-Acetyl Cysteine]
effect on vector titre [1]: no positive impact on titre

CCCCC(=O)O [valeric acid]
optimum concentration for vector induction ([2]; single agent, FIG. 4): 10 mM | concentration giving optimum vector production [1]: 20 mM | inducing effect on LV titre among HDAC inhibitors [3]: some inducing effect

CC(=O)O[C@@]12C[C@@H](C)[C@@]3(O)[C@@H](C=C(CO)C[C@]4(O)C(=O)C(C)=C[C@@H]34)[C@@H]1C2(C)C [prostratin, 12-Deoxyphorbol-13-acetate]
induction of GFP transgene expression from constitutive promoters [4]: induction of expression from the promoters; also recorded: clear induction | titre relative to the no-induction control [2]: approximately 4 fold | increase of MFI from GFP FACS of transduced cells ([2]; 16 μM prostratin at induction, residual 0.4 μM after 40-fold vector dilution): 26% | MFI from GFP FACS of transduced cells ([2]; 0.5 to 8 μM prostratin at induction): not observed to change | optimum concentration for vector induction ([2]; single agent, FIG. 4): 0.016 mM | vector titre relative to induction with sodium butyrate alone [5]: 2.4- to 2.9 fold | Cell Viability (%) ([6]; 2 μM prostratin, condition 3, vector production period of 48 hours): 79.4% | Δ (cell viability vs No Induction Control) ([6]; 2 μM prostratin, condition 3): +0.6 | Cell Viability (%) ([6]; 16 μM prostratin, condition 9, vector production period of 48 hours): 82.2% | Δ (cell viability vs No Induction Control) ([6]; 16 μM prostratin, condition 9): +3.4 | Cell Viability (%) ([6]; 32 μM prostratin, condition 45, vector production period of 48 hours): 79.8% | Δ (cell viability vs No Induction Control) ([6]; 32 μM prostratin, condition 45): +1 | effect on cell viability ([6]; prostratin 2-32 μM, vector production period of 48 hours): did not present any further loss in cell viability; also recorded: little cytotoxic effect; also recorded: no decrease in cell viability | increase in vector titre ([7]; 10 μM prostratin in combination with 10 mM sodium butyrate): 92% | effect on induction of increasing prostratin from 1 to 10 μM ([7]; throughout all the tested HDAC inhibitors, FIG. 6): positive enhancement of induction | increase in EIAV-CMV-GFP titre compared to the control titre [8, 14]: 2 fold | EIAV-CMV-GFP vector titre at harvest ([8]; 11 μM prostratin with 10 mM sodium butyrate at induction): 9.1E+05 TU/mL | titre increase compared to standard production control, CAR #1 vector [9, 15]: 125 fold | titre increase compared to standard production control, CAR #2-T2A-GFP vector [9, 15]: 4.5 fold | titre increase compared to standard production control, CAR #2 vector [9, 15]: 7.9 fold | titre increase compared to standard production control, CAR #1 vector [9, 16]: 24 fold | titre increase compared to standard production control, CAR #2-T2A-GFP vector [9, 16]: 2 fold | titre increase compared to standard production control, CAR #2 vector [9, 16]: 2.6 fold | effect on vector titre [1]: highest vector induction | titres of MSD-mutated LV with Prostratin and 256U1 applied together ([10]; 11 μM Prostratin + 256U1 co-transfection, versus standard LV without inducers): higher that standard LV production titres; also recorded: increased higher than standard SIN-LV vectors | increase in titres of MSD-mutated LV vectors ([10]; 11 μM Prostratin added at the sodium butyrate step, HIV-MSD2KOm5-EFS-GFP or -EF1a-GFP, FIG. 15): 5-10 fold | effect on titres of MSD-mutated and standard SIN-LV [10, 14]: boosted titres | increase of LV titre above optimum sodium butyrate (8 mM) alone ([11]; 11 μM prostratin with 8 mM sodium butyrate, DOE model optimum): 1.93 fold and ~2 fold | increase of GFP-HIV LV titres in combination with HDAC inhibitors ([11]; Example 3 as summarised in Example 4, 24-well plate scale): ≥ 2 fold | effect on titre in combination with sodium butyrate ([11]; FIG. 8): marked positive effect on titre | lowest concentrations causing an increase in titre ([11]; in combination with sodium butyrate): 2 to 4 µM | optimum predicted concentration of combined induction agents [11]: 11 µM | increase in vector titre compared to the no induction control ([11]; prostratin alone at 8-16 μM): ~13 fold and > 10 fold | inducing effect relative to optimum sodium butyrate ([11]; prostratin alone at 8-16 μM): approximately half the inducing effect of optimum sodium butyrate concentrations | effect of residual prostratin on titres from the integration assay [12]: identical titres | effect on titre of addition alongside HDACi ([3]; prostratin 4-8 μM with HDACi, nearly all cases): increased titres

O=C(OC[C@H]1O[C@@H](OC(=O)c2cc(O)c(O)c(OC(=O)c3cc(O)c(O)c(O)c3)c2)[C@H](OC(=O)c2cc(O)c(O)c(OC(=O)c3cc(O)c(O)c(O)c3)c2)[C@@H](OC(=O)c2cc(O)c(O)c(OC(=O)c3cc(O)c(O)c(O)c3)c2)[C@@H]1OC(=O)c1cc(O)c(O)c(OC(=O)c2cc(O)c(O)c(O)c2)c1)c1cc(O)c(O)c(OC(=O)c2cc(O)c(O)c(O)c2)c1 [Tannic acid, tannic acid]
effect on vector titre [1]: no measurable vector production

CC(=O)NCCCCCCNC(C)=O [HMBA]
titre relative to the no-induction control [2]: approximately 4 fold | effect on titre of combination with HDAC inhibitors ([2]; compared with HDAC inhibitor alone): no or only marginal improvements in titres; also recorded: did not produce any positive effects on titre | optimum concentration for vector induction ([2]; single agent, FIG. 4): 16 mM | effect on titre in combination with prostratin and sodium butyrate ([7]; 8 mM HMBA, compared to conditions where HMBA was excluded): notable decrease | effect on titre in combination with alternate HDAC inhibitors ([7]; with sodium valproate, valeric acid or SAHA, FIG. 6): negative effects on titre

CCCC(CCC)C(=O)[O-].[Na+] [sodium valproate]
optimum concentration for vector induction ([2]; single agent, FIG. 4): 10 mM | concentration giving optimum vector production [1]: 10 mM | inducing effect on LV titre among HDAC inhibitors [3]: some inducing effect

CC(/C=C/C(=O)NO)=C\[C@@H](C)C(=O)c1ccc(N(C)C)cc1 [TSA]
effect on vector titre [1]: failed to improve vector titres

O=C(CCCCCCC(=O)Nc1ccccc1)NO [SAHA, suberanilohydroxamic acid]
optimum concentration for vector induction ([2]; single agent, FIG. 4): 0.001 mM | concentration giving optimum vector production [1]: 0.0025 mM

CCCCCCCCCCCCCC(=O)O[C@@H]1[C@@H](C)[C@@]2(O)[C@@H](C=C(CO)C[C@]3(O)C(=O)C(C)=C[C@@H]23)[C@@H]2C(C)(C)[C@]12OC(C)=O [PMA, Phorbol 12-myristate 13-acetate]
optimum concentration for vector induction [2]: 3.2e-05 mM | titre relative to the no-induction control [2]: approximately 4 fold | effect on vector titre [1]: highest vector induction

CCCC(=O)[O-].[Na+] [sodium butyrate]
Cell Viability (%) ([6]; 10 mM sodium butyrate, condition 35, vector production period of 48 hours): 74.8% | Δ (cell viability vs No Induction Control) ([6]; 10 mM sodium butyrate, condition 35): −4 | loss in cell viability ([6]; sodium butyrate treated cells, vector production period of 48 hours): 4% | concentration giving optimum vector production [1]: 5 mM | optimum predicted concentration of combined induction agents [11]: 8000 µM | inducing effect on LV titre among HDAC inhibitors [3]: highest LV titres

B1: 256U1: modified U1 snRNA targeting nt256-270 (SL1 loop) of the HIV-1 packaging signal; expression construct SEQ ID NO: 22 (nucleic acid)
DNA: TAAGGACCAGCTTCTTTGGGAGAGAACAGACGCAGGGGCGGGAGGGAAAAAGGGAGAGGCAGACGTCACTTCCCCTTGGCGGCTCTGGCAGCAGATTGGTCGGTTGAGTGGCAGAAAGGCAGACGGGGACTGGGCAAGGCACTGTCGGTGACATCACGGACAGGGCGACTTCTATGTAGATGAGGCAGCGCAGAGGCTGCTGCTTCGCCACTTGCTGCTTCACCACGAAGGAGTTCCCGTGCCCTGGGAGCGGGTTCAGGACCGCTGATCGGAAGTGAGAATCCCAGCTGTGTGTCAGGGCTGGAAAGGGCTCGGGAGTGCGCGGGGCAAGTGACCGTGTGTGTAAAGAGTGAGGCGTATGAGGCTGTGTCGGGGCAGAGGCCCAAGATCTCATTTGCCGTGCGCGCTTGCAGGGGAGATACCATGATCACGAAGGTGGTTTTCCCAGGGCGAGGCTTATCCATTGCACTCCGGATGTGCTGACCCCTGCGATTTCCCCAAATGTGGGAAACTCGACTGCATAATTTGTGGTAGTGGGGGACTGCGTTCGCGCTTTCCCCTGGTTTCAAAAGTAGACTGTACGCTAAGGGTCATATCTTTTTTTGTTTTGGTTTGTGTCTTGGTTGGCGTCTTAAATGTTAA
modifications: DNA-based expression constructs for the modified U1 snRNAs
effect on lentiviral vector titres [13]: capable of increasing lentiviral vector titres | titre increase compared to standard production control, CAR #1 vector [9, 16]: 46 fold | titre increase compared to standard production control, CAR #2-T2A-GFP vector [9, 16]: 2.7 fold | titre increase compared to standard production control, CAR #2 vector [9, 16]: 2.5 fold

Source: US20230183742A1, “Viral Vector Production” (Oxford BioMedica (UK) Limited, priority 2020, published 2023)
